Test results: US20260206761A1, “HETEROARYL-TRIAZOLE COMPOUNDS AS PESTICIDES” (Bayer Aktiengesellschaft, priority 2019, published 2026)

Tests used:
Format in all cases: in vivo
[1] = test system: Rhipicephalus microplus larvae (strain Parkhurst, resistant against synthetic pyrethroids); test: Rhipicephalus (Boophilus) microplus in-vitro contact test, larval cattle tick; settings: after 48 hours, read-out: activity (efficacy: larvae dead or moribund); for pest or weed control at 100 g/ha: application rate 1 pg/cm^2 (=100 g/ha); for pest or weed control at 500 g/ha: application rate 5 pg/cm^2 (=500 g/ha)
Method in brief: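 Larvae (20-50 per tube) exposed to dry compound film on glass tube walls, 5 μg/cm^2 at 900 ppm, applied from acetone. After 48 h at 27° C./85% RH, tubes tapped and negative geotaxis scored; efficacy as percent dead or moribund larvae.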

[2] = test system: adult unfed cat fleas (Ctenocephalides felis); test: Ctenocephalides felis oral test; settings: 48 h, read-out: activity (mortality)
Method in brief: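 About 20 adult unfed fleas fed through parafilm on cattle blood containing compound (DMSO stock diluted in blood), blood held at 37 °C and fleas at room temperature. Mortality (%) scored after 2 days.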

[3] = test system: larvae of the banded cucumber beetle (Diabrotica balteata); test: Diabrotica balteata spray test; settings: 168 h, after 7 days, read-out: activity (efficacy: seedlings grown); for pest or weed control at 100 g/ha: application rate 100 g/ha (=32 pg/well); for pest or weed control at 500 g/ha: application rate 500 g/ha (=160 pg/well)
Method in brief: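 Read-out is % efficacy at day 7, 0% meaning no seedling growth and 100% growth equal to uninfested untreated controls. Test solutions (acetone/DMF concentrate diluted with water carrying 1000 ppm emulsifier) were sprayed onto 1-day-germinated wheat seeds, 5 per well, before infestation with 10-20 larvae.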

[4] = test system: green peach aphid (Myzus persicae); test: Myzus persicae spray test; settings: 120 h, after 5 days; for mortality at 100 g/ha: application rate 100 g/ha; for mortality at 500 g/ha: application rate 500 g/ha
Method in brief: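 Chinese cabbage leaf disks carrying all instars of M. persicae sprayed with compound in acetone/DMF, diluted in water with 1000 ppm alkylarylpolyglycol ether emulsifier. Percent mortality scored after 5 days (100% = all aphids killed).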

[5] = test system: fall armyworm larvae (Spodoptera frugiperda); test: Spodoptera frugiperda spray test; settings: 168 h, read-out: activity (mortality)
Method in brief: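 Larvae of fall armyworm placed on dried maize leaf sections previously sprayed with emulsified compound (acetone/DMF solvent, water with 1000 ppm emulsifier). Percent of caterpillars killed recorded on day 7, 0–100% scale.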

[6] = test system: Aedes aegypti strain MONHEIM; test: Aedes aegypti test (AEDSAE surface treatment & contact assay); settings: 24 hours after contact, read-out: efficacy (mortality); for mortality at 4 mg/m2: surface concentration 4 mg/m^2, exposure 30 minutes; for mortality at 20 mg/m2: surface concentration 20 mg/m^2, exposure 30 minutes
Method in brief: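 Percent mortality was read 24 h after adult MONHEIM mosquitoes were held for 30 min on a tile treated with compound. Compound applied from acetone solution (2 mg/ml) containing 2000 ppm rapeseed oil methyl ester, after evaporation.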

[7] = test system: Musca domestica strain WHO-N; test: Musca domestica test (MUSCDO surface treatment & contact assay); settings: 24 hours after contact, read-out: efficacy (mortality); for mortality at 20 mg/m2: surface concentration 20 mg/m^2, exposure 30 minutes; for mortality at 4 mg/m2: surface concentration 4 mg/m^2, exposure 30 minutes
Method in brief: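 Compound dissolved at 2 mg/ml in acetone with 2000 ppm rapeseed oil methyl ester and pipetted onto a glazed tile. After the acetone evaporated, adult WHO-N flies were exposed to the dried surface for 30 min, with % mortality scored 24 h after contact.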

[8] = test system: green peach aphid (Myzus persicae); test: Myzus persicae oral test; settings: 120 h, application rate 4 ppm, after 5 days
Method in brief: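 Aphids of mixed population ingest the compound preparation by sucking through a parafilm sheet stretched over wells holding test solution plus IPL41 insect medium (33%+15% sugar). Kill rate in percent is determined five days later.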

CC(C)c1nc([C@H](C)NC(=O)c2cc(OC(F)(F)F)cc(C3CC3)c2)n(-c2ccc(C#N)cn2)n1 [I-23]
pest or weed control at 100 g/ha [1]: 100%
pest or weed control at 500 g/ha [1]: 100%
mortality at 100 ppm [2]: 100%
pest or weed control at 100 g/ha [3]: 80%
mortality at 100 g/ha [4]: 90%
mortality at 100 g/ha [5]: 100%
mortality at 4 mg/m2 [6]: 80 to 100%
mortality at 20 mg/m2 [6]: 80 to 100%
mortality at 20 mg/m2 [7]: 80 to 100%

C[C@H](NC(=O)c1cc(Cl)cc(S(=O)(=O)C2CC2)c1)c1nc(C2CC2)nn1-c1ncc(Cl)cn1 [I-25]
pest or weed control at 100 g/ha [1]: 100%
pest or weed control at 500 g/ha [1]: 100%
mortality at 100 ppm [2]: 100%
pest or weed control at 100 g/ha [3]: 100%
mortality at 4 ppm [8]: 100%
mortality at 100 g/ha [4]: 100%
mortality at 100 g/ha [5]: 100%
mortality at 4 mg/m2 [6]: 80 to 100%
mortality at 20 mg/m2 [6]: 80 to 100%
mortality at 4 mg/m2 [7]: 80 to 100%
mortality at 20 mg/m2 [7]: 80 to 100%

CC(NC(=O)c1cc(C(F)(F)F)cc(S(C)(=O)=O)c1)c1nc(Cl)nn1-c1ncccn1 (centres unmarked) [I-30]
pest or weed control at 100 g/ha [1]: 100%
pest or weed control at 500 g/ha [1]: 100%
mortality at 100 ppm [2]: 100%
pest or weed control at 100 g/ha [3]: 100%
mortality at 4 ppm [8]: 100%
mortality at 100 g/ha [4]: 90%
mortality at 4 mg/m2 [6]: 80 to 100%
mortality at 20 mg/m2 [6]: 80 to 100%
mortality at 20 mg/m2 [7]: 80 to 100%

C[C@H](NC(=O)c1cc(OC(F)(F)F)cc(C2CC2)c1)c1ncnn1-c1ccccn1 [II-22]
pest or weed control at 100 g/ha [1]: 100%
pest or weed control at 500 g/ha [1]: 100%
mortality at 100 ppm [2]: 100%
pest or weed control at 100 g/ha [3]: 100%
pest or weed control at 500 g/ha [3]: 100%
mortality at 4 ppm [8]: 100%
mortality at 500 g/ha [4]: 90%
mortality at 100 g/ha [5]: 100%
mortality at 500 g/ha [5]: 100%
mortality at 4 mg/m2 [6]: 80 to 100%
mortality at 20 mg/m2 [6]: 80 to 100%
mortality at 4 mg/m2 [7]: 80 to 100%
mortality at 20 mg/m2 [7]: 80 to 100%

C[C@H](NC(=O)c1cc(C(F)(F)F)cc(S(=O)(=O)C2CC2)c1)c1ncnn1-c1ccc(C#N)cn1 [II-32]
pest or weed control at 100 g/ha [1]: 100%
pest or weed control at 500 g/ha [1]: 100%
mortality at 100 ppm [2]: 100%
pest or weed control at 100 g/ha [3]: 100%
pest or weed control at 500 g/ha [3]: 100%
mortality at 4 ppm [8]: 100%
mortality at 500 g/ha [4]: 90%
mortality at 100 g/ha [5]: 100%
mortality at 500 g/ha [5]: 100%
mortality at 4 mg/m2 [6]: 80 to 100%
mortality at 20 mg/m2 [6]: 80 to 100%
mortality at 4 mg/m2 [7]: 80 to 100%
mortality at 20 mg/m2 [7]: 80 to 100%

C[C@H](NC(=O)c1cc(Cl)cc(S(=O)(=O)C(F)F)c1)c1ncnn1-c1ncccn1 [II-34]
pest or weed control at 100 g/ha [1]: 100%
pest or weed control at 500 g/ha [1]: 90%
mortality at 100 ppm [2]: 100%
pest or weed control at 100 g/ha [3]: 100%
pest or weed control at 500 g/ha [3]: 100%
mortality at 4 ppm [8]: 100%
mortality at 100 g/ha [4]: 100%
mortality at 500 g/ha [4]: 100%
mortality at 100 g/ha [5]: 83%
mortality at 500 g/ha [5]: 100%
mortality at 4 mg/m2 [6]: 80 to 100%
mortality at 20 mg/m2 [6]: 80 to 100%
mortality at 20 mg/m2 [7]: 80 to 100%

Cc1nc([C@H](C)NC(=O)c2cc(Cl)cc(S(=O)(=O)C(F)F)c2)n(-c2ccc(C#N)cn2)n1 [II-35]
pest or weed control at 100 g/ha [1]: 100%
pest or weed control at 500 g/ha [1]: 100%
mortality at 100 ppm [2]: 100%
pest or weed control at 100 g/ha [3]: 100%
pest or weed control at 500 g/ha [3]: 100%
mortality at 4 ppm [8]: 100%
mortality at 100 g/ha [4]: 100%
mortality at 500 g/ha [4]: 100%
mortality at 4 mg/m2 [6]: 80 to 100%
mortality at 20 mg/m2 [6]: 80 to 100%
mortality at 4 mg/m2 [7]: 80 to 100%
mortality at 20 mg/m2 [7]: 80 to 100%

Cc1nc([C@H](C)NC(=O)c2cc(Cl)cc(S(=O)(=O)C(F)F)c2)n(-c2ccc(Cl)cn2)n1 [II-36]
pest or weed control at 100 g/ha [1]: 100%
pest or weed control at 500 g/ha [1]: 100%
mortality at 100 ppm [2]: 100%
pest or weed control at 100 g/ha [3]: 100%
pest or weed control at 500 g/ha [3]: 100%
mortality at 4 ppm [8]: 100%
mortality at 500 g/ha [4]: 90%
mortality at 100 g/ha [5]: 100%
mortality at 500 g/ha [5]: 100%
mortality at 4 mg/m2 [6]: 80 to 100%
mortality at 20 mg/m2 [6]: 80 to 100%
mortality at 4 mg/m2 [7]: 80 to 100%

Cc1nc([C@H](C)NC(=O)c2cc(Cl)cc(C3(C#N)CC3)c2)n(-c2ccc(C#N)cn2)n1 [II-38]
pest or weed control at 100 g/ha [1]: 100%
pest or weed control at 500 g/ha [1]: 100%
mortality at 100 ppm [2]: 100%
pest or weed control at 100 g/ha [3]: 100%
mortality at 4 ppm [8]: 100%
mortality at 100 g/ha [4]: 90%
mortality at 100 g/ha [5]: 100%
mortality at 4 mg/m2 [6]: 80 to 100%
mortality at 4 mg/m2 [7]: 80 to 100%
mortality at 20 mg/m2 [7]: 80 to 100%

C[C@H](NC(=O)c1cc(C(F)(F)F)cc(C2(C#N)CC2)c1)c1ncnn1-c1ccc(C#N)cn1 [II-47]
pest or weed control at 100 g/ha [1]: 100%
pest or weed control at 500 g/ha [1]: 100%
mortality at 100 ppm [2]: 100%
pest or weed control at 100 g/ha [3]: 100%
mortality at 4 ppm [8]: 100%
mortality at 100 g/ha [4]: 100%
mortality at 100 g/ha [5]: 100%
mortality at 4 mg/m2 [6]: 80 to 100%
mortality at 20 mg/m2 [6]: 80 to 100%
mortality at 4 mg/m2 [7]: 80 to 100%
mortality at 20 mg/m2 [7]: 80 to 100%

C[C@H](NC(=O)c1cc(C(F)(F)F)cc(C2(C#N)CC2)c1)c1ncnn1-c1ccc(Cl)cn1 [II-48]
pest or weed control at 100 g/ha [1]: 100%
pest or weed control at 500 g/ha [1]: 100%
mortality at 100 ppm [2]: 100%
pest or weed control at 100 g/ha [3]: 100%
mortality at 4 ppm [8]: 100%
mortality at 100 g/ha [4]: 100%
mortality at 100 g/ha [5]: 100%
mortality at 4 mg/m2 [6]: 80 to 100%
mortality at 20 mg/m2 [6]: 80 to 100%
mortality at 4 mg/m2 [7]: 80 to 100%
mortality at 20 mg/m2 [7]: 80 to 100%

Cc1nc([C@H](C)NC(=O)c2cc(C(F)(F)F)cc(C3(C#N)CC3)c2)n(-c2ccc(C#N)cn2)n1 [II-49]
pest or weed control at 100 g/ha [1]: 100%
pest or weed control at 500 g/ha [1]: 100%
mortality at 100 ppm [2]: 100%
pest or weed control at 100 g/ha [3]: 100%
mortality at 4 ppm [8]: 100%
mortality at 100 g/ha [4]: 100%
mortality at 100 g/ha [5]: 100%
mortality at 4 mg/m2 [6]: 80 to 100%
mortality at 20 mg/m2 [6]: 80 to 100%
mortality at 4 mg/m2 [7]: 80 to 100%
mortality at 20 mg/m2 [7]: 80 to 100%

Cc1nc([C@H](C)NC(=O)c2cc(C(F)(F)F)cc(C3(C#N)CC3)c2)n(-c2ccc(Cl)cn2)n1 [II-50]
pest or weed control at 100 g/ha [1]: 100%
pest or weed control at 500 g/ha [1]: 100%
mortality at 100 ppm [2]: 100%
pest or weed control at 100 g/ha [3]: 100%
mortality at 4 ppm [8]: 100%
mortality at 100 g/ha [4]: 100%
mortality at 100 g/ha [5]: 100%
mortality at 4 mg/m2 [6]: 80 to 100%
mortality at 20 mg/m2 [6]: 80 to 100%
mortality at 20 mg/m2 [7]: 80 to 100%

Cc1nc([C@H](C)NC(=O)c2cc(C(F)(F)F)cc(S(C)(=O)=O)c2)n(-c2ccc(C#N)cn2)n1 [II-52]
pest or weed control at 100 g/ha [1]: 100%
pest or weed control at 500 g/ha [1]: 100%
mortality at 100 ppm [2]: 100%
pest or weed control at 100 g/ha [3]: 100%
mortality at 100 g/ha [4]: 90%
mortality at 100 g/ha [5]: 100%
mortality at 4 mg/m2 [6]: 80 to 100%
mortality at 20 mg/m2 [6]: 80 to 100%
mortality at 4 mg/m2 [7]: 80 to 100%
mortality at 20 mg/m2 [7]: 80 to 100%
